Reference: US5496830A (Johns Hopkins University, priority 1994, dated 1996)
Like-named read-outs stand apart in the source and are kept apart here.

Legend:
[1] = tested on: T. brucei brucei (MiTat 1.2, strain 427, variant 221); assay: In vitro inhibition of blood stream form trypanosomes, acid phosphatase detection of survivors; type: cell-based; conditions: Trypanosoma brucei, read-out: Trypanosome EC50
Experimental: Camptothecin compounds were tested against blood stream form trypanosomes in vitro. T. brucei brucei (MiTat 1.2, strain 427, variant 221) were cultured at 37° C. according to the methods of Carruthers and Cross (Carruthers, V. B., and Cross, G. A. M. (1992) Proc. Natl. Acad. Sci. USA., 89:8818-8821) with the substitution of phenol red-free Iscoves Modified Dulbecco's Medium (Mediatech, Inc.) in the HMI-9 culture medium. […] Exponentially growing trypanosomes were diluted to 10^5 cells/ml with prewarmed medium.
The plate was incubated at 37° C. for 24 h in a humidified incubator maintained with 5% CO2.
Surviving trypanosomes were detected by the acid phosphatase method (Martin, A. and Clynes, M. (1991) In Vitro Cell. Dev. Biol. 27A:183-184). p-Nitrophenol phosphate (20 μl of 20 mg/ml; solubilized in 1 M sodium acetate, pH 5.5; 1% Triton X-100) was added to each 200 μl sample and mixed. The plate was then incubated for 3-4 h at 37° C. The production of p-nitrophenol was measured at 405 nm on a microplate reader (UVmax kinetic microplate reader, Molecular Devices). Quadruplicate values were averaged and blanks (complete reaction mixture without trypanosomes) were subtracted for each drug concentration.

topoisomerase I [2] = target: T1, topoisomerase I (Homo sapiens, UniProt P11387); assay: Topoisomerase I inhibition relative to 20(S)-camptothecin (separate independent experiments); type: biochemical; conditions: T1 relative to 20(S)CPT
T1 sequence (P11387 1-765): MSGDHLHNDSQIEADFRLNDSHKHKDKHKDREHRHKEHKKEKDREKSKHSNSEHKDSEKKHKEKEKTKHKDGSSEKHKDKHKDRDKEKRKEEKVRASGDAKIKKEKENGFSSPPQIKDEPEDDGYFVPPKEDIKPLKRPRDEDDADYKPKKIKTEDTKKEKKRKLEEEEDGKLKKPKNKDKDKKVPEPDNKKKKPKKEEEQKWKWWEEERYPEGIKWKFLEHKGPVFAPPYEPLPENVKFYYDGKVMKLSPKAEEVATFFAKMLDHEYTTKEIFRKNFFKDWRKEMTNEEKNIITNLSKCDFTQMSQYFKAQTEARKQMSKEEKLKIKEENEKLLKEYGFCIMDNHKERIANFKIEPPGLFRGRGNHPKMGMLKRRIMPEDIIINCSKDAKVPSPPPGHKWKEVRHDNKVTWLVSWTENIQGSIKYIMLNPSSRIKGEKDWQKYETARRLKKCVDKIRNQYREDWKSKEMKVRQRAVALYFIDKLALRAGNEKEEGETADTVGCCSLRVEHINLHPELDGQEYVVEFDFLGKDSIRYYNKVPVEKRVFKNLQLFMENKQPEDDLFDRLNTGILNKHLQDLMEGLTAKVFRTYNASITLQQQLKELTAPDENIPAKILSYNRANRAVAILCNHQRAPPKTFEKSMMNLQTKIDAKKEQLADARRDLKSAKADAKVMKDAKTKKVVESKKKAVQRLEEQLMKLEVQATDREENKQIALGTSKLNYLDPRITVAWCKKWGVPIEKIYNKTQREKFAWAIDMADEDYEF

topoisomerase I [3] = target: T2, topoisomerase I (Bos taurus, UniProt F1MN93); assay: Topoisomerase I inhibition by the cleavable complex assay of Hsiang et al.; type: biochemical; conditions: for T-1 Inhibition IC50: cleavable complex assay of Hsiang et al.
T2 sequence (F1MN93 1-767): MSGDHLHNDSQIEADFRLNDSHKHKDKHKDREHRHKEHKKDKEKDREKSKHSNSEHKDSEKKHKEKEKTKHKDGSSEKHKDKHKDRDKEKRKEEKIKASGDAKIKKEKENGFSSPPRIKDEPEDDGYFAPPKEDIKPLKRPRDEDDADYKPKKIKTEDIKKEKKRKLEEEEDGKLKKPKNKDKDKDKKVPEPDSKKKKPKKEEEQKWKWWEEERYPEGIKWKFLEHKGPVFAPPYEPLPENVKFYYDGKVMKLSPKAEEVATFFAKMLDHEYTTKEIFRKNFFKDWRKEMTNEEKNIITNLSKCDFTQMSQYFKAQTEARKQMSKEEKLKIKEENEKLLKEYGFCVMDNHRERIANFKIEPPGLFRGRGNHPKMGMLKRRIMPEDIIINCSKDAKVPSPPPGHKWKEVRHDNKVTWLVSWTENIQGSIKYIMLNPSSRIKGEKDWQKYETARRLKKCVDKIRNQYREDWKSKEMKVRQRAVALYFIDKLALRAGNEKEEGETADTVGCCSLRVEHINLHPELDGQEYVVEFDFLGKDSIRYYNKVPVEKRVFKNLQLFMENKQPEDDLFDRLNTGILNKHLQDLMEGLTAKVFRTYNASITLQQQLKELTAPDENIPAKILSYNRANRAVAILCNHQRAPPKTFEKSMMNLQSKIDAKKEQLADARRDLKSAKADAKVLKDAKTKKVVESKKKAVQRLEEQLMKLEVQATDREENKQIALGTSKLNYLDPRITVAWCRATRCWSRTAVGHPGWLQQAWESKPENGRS

[4] = blood stream form T. brucei, 24 h at 37° C., acid phosphatase method

Structure (SMILES) | EC50 [1, 4] [µM] | Relative Potency T-1 Inhibition (topoisomerase I [2]) | EC50 ([1]; 24 h) [µM] | IC50 (topoisomerase I [3]) [µM] | T-1 Inhibition IC50 (topoisomerase I [3])
CCC1(OC(=O)CN)C(=O)OCc2c1cc1n(c2=O)Cc2cc3cc4c(cc3nc2-1)OCO4 (racemic) [10,11-MD-20-Glycinate-20(RS)-CPT] | 0.92 | – | – | – | –
CCc1c2c(nc3cccc(N)c13)-c1cc3c(c(=O)n1C2)COC(=O)[C@]3(O)CC [7-Ethyl-9-amino-20(S)-CPT, 7-ethyl-9-amino-20(S)-camptothecin] | – | 5 | 0.91 | – | –
CCc1c2c(nc3cccc([N+](=O)[O-])c13)-c1cc3c(c(=O)n1C2)COC(=O)[C@]3(O)CC [7-Ethyl-9-nitro-20(S)-CPT, 7-ethyl-9-nitro-20(S)-camptothecin] | – | 4 | 2.67 | – | –
CCc1c2c(nc3cc4c(cc13)OCO4)-c1cc3c(c(=O)n1C2)COC(=O)[C@]3(O)CC [7-Ethyl-10,11-methylenedioxy-20(S)-CPT, 7-ethyl-10,11-methylenedioxy-20(S)-camptothecin] | – | 12 | 0.06 | – | –
CCc1c2c(nc3ccc(N)cc13)-c1cc3c(c(=O)n1C2)COC(=O)[C@]3(O)CC [7-Ethyl-10-amino-20(S)-CPT, 7-ethyl-10-amino-20(S)-camptothecin] | – | 5 | 0.62 | – | –
CCc1c2c(nc3ccc([N+](=O)[O-])cc13)-c1cc3c(c(=O)n1C2)COC(=O)[C@]3(O)CC [7-Ethyl-10-nitro-20(S)-CPT, 7-ethyl-10-nitro-20(S)-camptothecin] | – | 4 | 0.6 | – | –
CCc1c2c(nc3ccccc13)-c1cc3c(c(=O)n1C2)COC(=O)[C@]3(O)CC [7-Ethyl-20(S)-CPT, 7-ethyl-20(S)-camptothecin] | – | 3 | 0.77 | – | –
CC[C@@]1(O)C(=O)OCc2c1cc1n(c2=O)Cc2c-1nc1cc3c(cc1c2C)OCO3 [7-Methyl-10,11-methylenedioxy-20(S)-CPT, 7-methyl-10,11-methylenedioxy-20(S)-camptothecin] | – | 5 | 0.04 | – | –
CCCc1c2c(nc3ccccc13)-c1cc3c(c(=O)n1C2)COC(=O)[C@]3(O)CC [7-Propyl-20(S)-CPT, 7-propyl-20(S)-camptothecin] | – | 2 | 0.77 | – | –
CCc1c2c(nc3cc4c(c(N)c13)OCO4)-c1cc3c(c(=O)n1C2)COC(=O)[C@]3(O)CC [7-ethyl-9-amino-10,11-methylenedioxy-20(S)-camptothecin] | – | 10 | 0.06 | – | –
CCc1c2c(nc3cc4c(c([N+](=O)[O-])c13)OCO4)-c1cc3c(c(=O)n1C2)COC(=O)[C@]3(O)CC [7-ethyl-9-nitro-10,11-methylenedioxy-20(S)-camptothecin] | – | 5 | 0.21 | – | –
CC[C@@]1(O)C(=O)OCc2c1cc1n(c2=O)Cc2cc3c(N)c4c(cc3nc2-1)OCO4 [9-Amino-10,11-MD-20(S)-CPT, 9-amino-10,11-methylenedioxy-20(S)-camptothecin] | – | – | 0.18 | 0.05 | –
CC[C@@]1(O)C(=O)OCc2c1cc1n(c2=O)Cc2cc3c(N)cccc3nc2-1 [9-Amino-20(S)-CPT, 9-amino-20(S)-camptothecin] | 0.87 | 2 | – | – | –
CC[C@@]1(O)C(=O)OCc2c1cc1n(c2=O)Cc2cc3c(Cl)cccc3nc2-1 [9-Chloro-20(S)-CPT, 9-chloro-20(S)-camptothecin] | – | – | 0.89 | 0.09 | –
CC[C@@]1(O)C(=O)OCc2c1cc1n(c2=O)Cc2cc3c([N+](=O)[O-])c4c(cc3nc2-1)OCO4 [9-Nitro-10,11-methylenedioxy-20(S)-CPT] | – | 3 | 0.4 | – | –
CC[C@@]1(O)C(=O)OCc2c1cc1n(c2=O)Cc2cc3c([N+](=O)[O-])cccc3nc2-1 [9-Nitro-20(S)-CPT] | 1.64 | – | – | – | –
CC[C@@]1(O)C(=O)OCc2c1cc1n(c2=O)Cc2cc3cc4c(cc3nc2-1)OCO4 [10,11-MD-20(S)-CPT, 10,11-methylenedioxy-20(S)-camptothecin] | – | 10 | 0.21 | 0.03 | –
CC[C@@]1(O)C(=O)OCc2c1cc1n(c2=O)Cc2cc3cc(N)ccc3nc2-1 [10-Amino-20(S)-CPT, 10-amino-20(S)-camptothecin] | – | 2 | 1.2 | – | –
CC[C@@]1(O)C(=O)OCc2c1cc1n(c2=O)Cc2cc3cc(Cl)ccc3nc2-1 [10-Chloro-20(S)-CPT, 10-chloro-20(S)-camptothecin] | – | – | 1.77 | – | –
CC[C@@]1(O)C(=O)OCc2c1cc1n(c2=O)Cc2cc3cc(C)ccc3nc2-1 [10-Methyl-20(S)-CPT] | – | – | 3.14 | – | –
CC[C@@]1(O)C(=O)OCc2c1cc1n(c2=O)Cc2cc3cc([N+](=O)[O-])ccc3nc2-1 [10-Nitro-20(S)-CPT] | – | – | 1.75 | – | –
CC[C@@]1(O)C(=O)OCc2c1cc1n(c2=O)Cc2cc3ccc(N)cc3nc2-1 [11-Amino-20(S)-CPT] | – | – | 23.1 | – | inactive
CC[C@@]1(O)C(=O)OCc2c1cc1n(c2=O)Cc2cc3cccc(N)c3nc2-1 [12-Amino-20(S)-CPT] | – | – | 22.5 | – | inactive
CC[C@@]1(O)C(=O)OCc2c1cc1n(c2=O)Cc2cc3ccccc3nc2-1 [20(S)-CPT, 20(S)-camptothecin] | – | 1 | 1.55 | – | –
CC[C@@]1(OC(=O)CN)C(=O)OCc2c1cc1n(c2=O)Cc2cc3ccccc3nc2-1 [20-Glycinate-20(S)-CPT] | 5.1 | – | – | – | –
